Experimental data as given in PMC12040169 (PLOS Biology, 2025).

Assay: in vitro
Conditions: human, hela cells, % viability

| SMILES | viability at 28.5 h, 10 µM [%] | viability at 28.5 h, 10 µM (bulk resorufin, single well) [%] |
| --- | --- | --- |
| CCOc1ccc(NC(c2ccccc2)c2cc3cc(OC)ccc3[nH]c2=O)cc1 (centres unmarked) [CBK286157] | 81.7 | – |
| N#Cc1c(NC(=O)CSc2nnc3c(n2)[nH]c2ccccc23)sc2c1CCCC2 [CBK262417] | 93 | – |
| COc1ccc(S(=O)(=O)NCCSCc2cccc(Cl)c2)c(Cl)c1Cl [CBK266281] | 97.6 | – |
| O=C(O)CCCCCNc1ncnc2sc3c(c12)CCCC3 [CBK077446] | 102 | – |
| CC1(C)COC(=O)N1C1CCN(C(=O)c2ccno2)CC1 [CBK044383] | 95.7 | – |
| CCc1noc(C)c1C(=O)Nc1cccc(Cn2cc(Cl)cn2)c1 [CBK268127] | 97.6 | – |
| CC(=O)Nc1nn(Cc2cc3c(cc2Cl)OCO3)c2ccccc12 [CBK048251] | 96.5 | – |
| COCc1cc(C)nc(NCCO)c1C#N [CBK262556] | 96.6 | – |
| CN(C)c1ccc(CC(=O)NC2Cc3ccccc3C2)cc1 [CBK200360] | 105 | – |
| O=[N+]([O-])c1ccccc1S(=O)(=O)Nc1ccc(S(=O)(=O)Nc2ncccn2)cc1 [CBK264768] | 109 | – |
| CC(C)Nc1nccnc1OCCc1c[nH]c2ccccc12 [CBK115647] | 79.7 | – |
| COc1ccc(NC2=N[C@H]3[C@@H](O)[C@H](O)C[C@H](C(=O)N(C)Cc4ccccc4)[C@H]3S2)cc1 [CBK288950] | 96.7 | – |
| Cc1nccn1CC1CCCN(Cc2ccnc3ccccc23)C1 (centres unmarked) [CBK281966] | 84.7 | – |
| COc1ccc(NC(=O)c2ccc(-c3ccc(Nc4ccc5c(c4)OCCO5)nc3)cc2)cc1 [CBK036815] | 88.7 | – |
| Cc1cccc(OCCOc2ccc(Br)cc2/C=C2\SC(=N)NC2=O)c1 [CBK263958] | 102 | – |
| O=C1S/C(=C\c2ccc(O)c([N+](=O)[O-])c2)C(=O)N1Cc1ccc(F)cc1 [CBK102928] | 94.9 | – |
| CCn1ncc(S(=O)(=O)Nc2ccc3c(c2)cc(C)n3C)c1C [CBK282761] | 95.6 | – |
| O=C(O)c1ccc(NC(=O)c2cn(-c3ccccc3)nc2-c2ccccc2)cc1 [CBK296120] | 94.4 | – |
| N#C/C(=C\c1cn(-c2ccccc2)nc1-c1cccc(S(=O)(=O)N2CCOCC2)c1)c1nc2ccccc2c(=O)[nH]1 [CBK266357] | 98.1 | – |
| c1cncc(CN2CCOC[C@H]2c2nc(-c3cccnc3)c[nH]2)c1 [CBK289323] | 86.3 | – |
| CC1(C)Cc2nc3[nH]nc(N)c3cc2CO1 [CBK261476] | 93.9 | – |
| COc1ccc(C(=O)N2CCC3(CCCN(C(=O)c4cscn4)C3)C2)cc1OC (centres unmarked) [CBK131659] | 92 | – |
| O=c1[nH]c2cc(NCCO)c([N+](=O)[O-])cc2[nH]1 [CBK009794] | 93.2 | – |

| SMILES | viability at 28.5 h, 10 µM [%] | viability at 28.5 h, 10 µM (bulk resorufin, single well) [%] |
| --- | --- | --- |
| COC(=O)c1ccccc1NC(=O)CNS(=O)(=O)c1ccc(C)cc1 [CBK266000] | 94.7 | – |
| O=C(O)CCCC(=O)N1CCN(C(=O)c2sc3cc(Cl)ccc3c2Cl)CC1 [CBK286973] | 91 | – |
| c1csc(C2Nc3ccccc3C3=NCCCN32)c1 (centres unmarked) [CBK284489] | 99.2 | – |
| CCOCCn1c(N2CCCC(C)C2)nc2c1c(=O)[nH]c(=O)n2C (centres unmarked) [CBK304304] | 85.1 | – |
| COc1cc(-c2cc(C(=O)O)c3c(-c4ccc(C)cc4)n[nH]c3n2)ccc1O [CBK287268] | 83.9 | – |
| COCCn1cc(C(=O)N2CCN3CCCCC3C2)c2ccccc21 (centres unmarked) [CBK305287] | 107 | – |
| Cn1nccc1NS(=O)(=O)c1ccc(-c2cnco2)s1 [CBK062088] | 94.4 | – |
| O=C(NCCCn1ccnc1)c1ncoc1-c1ccccc1F [CBK283917] | 96 | – |
| COc1ccc2[nH]cc(CCNC(=O)c3ccc(C)nc3N3CCOCC3)c2c1 [CBK106203] | 108 | – |
| CC(C)(c1ccccc1)c1ccc(OCCNCCN)cc1 [CBK265102] | 103 | – |
| COCCn1cc(C(=O)N2CCCC2c2ccncc2)c2ccccc21 (centres unmarked) [CBK305286] | 91.8 | – |
| O=C(CCN1C(=O)/C(=C/c2ccc(F)cc2)SC1=S)NNC(=O)c1ccncc1 [CBK262821] | 92.4 | – |
| O=C(O)C(c1c[nH]c2ccccc12)N1CCOCC1 (centres unmarked) [CBK286739] | 83.8 | – |
| CCc1nc(N)nc(N2CCC3(CCC(CNC(C)=O)O3)CC2)c1C (centres unmarked) [CBK307168] | 100 | – |
| Nc1c(-c2ccc3c(c2)CCO3)cnc2ncccc12 [CBK083678] | 96 | – |
| COc1ccc(OC)c(NC(=O)CSc2nnc(-c3cccnc3)s2)c1 [CBK269043] | 78.3 | – |
| Cc1cc(Br)c(NCC(=O)N/N=C/c2ccc(O)cc2)c(Br)c1 [CBK263506] | 101 | – |
| CCO[C@H]1COC[C@@H]1NC(=O)c1cccc2c1NCCC2 [CBK307113] | 94.9 | – |
| O=[N+]([O-])c1ccc(COc2cccc(/C=N/Nc3nc4ccccc4s3)c2)cc1 [CBK262160] | 87.8 | – |
| CCOC(=O)N1CCN(CC2CCCCN2)CC1 (centres unmarked) [CBK022780G] | 83.4 | – |
| Cc1ccc(S(=O)(=O)Nc2ccnc(-c3ccc(CO)cc3)n2)cc1 [CBK067477] | 90.4 | – |
| O=C(Cc1cc(F)c(F)c(F)c1)Nc1cnccn1 [CBK161764] | 90.1 | – |
| OCCOc1cccnc1OCC1CC1 [CBK001461] | 89.4 | – |

| SMILES | viability at 28.5 h, 10 µM [%] | viability at 28.5 h, 10 µM (bulk resorufin, single well) [%] |
| --- | --- | --- |
| Cc1nn(C)cc1C(=O)N1CCC(c2cc3c(C)cccc3cn2)CC1 [CBK282231] | 103 | – |
| CCn1cc(C2CN(S(=O)(=O)c3ccc(F)c(C)c3)CCO2)cn1 (centres unmarked) [CBK305419] | 91.3 | – |
| COc1cccc(NC(=O)CC(CN2CCN(Cc3ccccn3)CC2)C(=O)O)c1 (centres unmarked) [CBK286735] | 85.1 | – |
| CC(=O)Nc1ccc(-c2ccc(=O)n3c2[C@@H]2C[C@@H](CN(C(=O)c4ccccc4)C2)C3)cc1 [CBK289198] | 89.4 | – |
| N/N=C1\C2CN3CCN(C2)CC1(Cc1ccccc1)C3 [CBK261977] | 91.8 | – |
| O=C1CC(C(=O)Nc2ccccn2)c2ccccc2N1 (centres unmarked) [CBK297771] | 101 | – |
| Cc1ccc(-n2cccn2)cc1S(=O)(=O)NCCN1CCCCC1CO (centres unmarked) [CBK307163] | 122 | – |
| Oc1nc2ccccc2nc1-c1ccccc1 [CBK016193] | 94.3 | – |
| Cc1cccc(C(=O)Nc2nc3ccc(S(C)(=O)=O)cc3s2)c1 [CBK287323] | 89.8 | – |
| O=C(Nc1ccc(Oc2cccnc2)cc1)C1CCCN1 (centres unmarked) [CBK282498] | 110 | – |
| O=C(CSCc1c(Cl)cccc1Cl)Nc1ccc(-c2nnc(-c3ccccc3)o2)cc1 [CBK267817] | 99.7 | – |
| COc1ccc(NC(=O)CCN2C(=O)c3ccccc3S2(=O)=O)cc1 [CBK265863] | 87.1 | – |
| CC(=O)N1C[C@@H]2OCC(=O)N(Cc3nccn3C)[C@@H]2C1 [CBK289668] | 90.6 | – |
| CCN(CC(=O)NCc1ccc(C)cc1)S(=O)(=O)c1ccc(C)cc1 [CBK267511] | 110 | – |
| COc1cc(C=O)ccc1OC(=O)c1nsc(Cl)c1Cl [CBK266619] | 89.1 | – |
| O=c1ccc2cc(S(=O)(=O)Nc3ncc(Br)c4cccnc34)ccc2o1 [CBK073887] | 94 | – |
| CCn1cc(C(=O)NN)c(=O)c2cc(F)c(N3CCCCCC3)cc21 [CBK307145] | 100 | – |
| O=c1c2cc(OCc3ccc(Cl)cc3)ccc2nc2n1CCC2 [CBK287977] | 91.6 | – |
| O=C(O)c1ccnc2ccccc12 [CBK012261] | 88.2 | – |
| CCCCOC(=O)c1ccc(N2C(=O)CC(N3CCN(c4ccc(F)cc4)CC3)C2=O)cc1 (centres unmarked) [CBK265527] | 94.6 | – |
| COc1ccccc1-c1nnc(SC)n1-c1ccc(C)cc1 [CBK076670] | 93.2 | – |
| CC1CCCC(N2CCN(Cc3ccccn3)CC2)C1 (centres unmarked) [CBK263450] | 93 | – |
| COc1ccc(S(=O)(=O)Nc2cc(C(=O)O)ccc2C)cc1NC(C)=O [CBK296946] | 93.4 | – |

| SMILES | viability at 28.5 h, 10 µM [%] | viability at 28.5 h, 10 µM (bulk resorufin, single well) [%] |
| --- | --- | --- |
| Cn1cc([C@@H]2CN(Cc3cccs3)C[C@H]2N)c2ccncc21 [CBK285320] | 98.9 | – |
| CC(C)Oc1cccc2cccc(C(O)CN(C)C)c12 (centres unmarked) [CBK009892] | 98.5 | – |
| CC(C)c1noc(N2CCC(Oc3ccc(-c4ccc(S(C)(=O)=O)cc4)cn3)CC2)n1 [CBK158821] | 84.6 | – |
| COc1cc(C(=O)NCc2ccc(-c3csnn3)cc2)cc(OC)c1OC [CBK149308] | 87 | – |
| O/N=C1/CCCCCC1NO (centres unmarked) [CBK264368A] | 107 | – |
| Cn1nc(-c2cccs2)cc1[C@H]1CN2CC[C@H]1C[C@@H]2CNC(=O)Nc1ccccc1 [CBK289104] | 89 | – |
| Oc1nc(CSc2nnc(-c3ccncc3)n2-c2ccccc2)nc2ccccc12 [CBK264851] | 97.5 | – |
| Cc1ccc(N2C(=O)/C(=C/c3ccc(OCC(=O)O)c(Cl)c3)C(=O)NC2=S)c(C)c1 [CBK264043] | – | 109 |
| CC(C)N(C(=O)N1CCC(c2cccnc2)CC1)C(C)C [CBK283850] | 97.6 | – |
| CCOC(=O)c1ccc(NC(=O)Cc2c(C(=O)O)nnn2-c2cccc(C(F)(F)F)c2)cc1 [CBK296932] | 106 | – |
| COc1ccc(Br)c(C(=O)Nc2cc(N3CCNCC3)c3occc3c2)c1 [CBK061757C] | 115 | – |
| Cc1c(C(=O)C2=C(O)C(=O)N(Cc3cccnc3)C2c2ccncc2)cnn1-c1ccccc1 (centres unmarked) [CBK233899] | 114 | – |
| O=C(O)CNC(=O)Cn1ccc2cc(OCc3ccccc3)ccc21 [CBK286665] | 81.2 | – |
| COc1ccc(C2(NC(=O)Cn3ccnc3)CCCCC2)cc1 [CBK283661] | 84 | – |
| CCN(CCO)C(=O)NC1CCCc2c1cnn2Cc1ccccc1 (centres unmarked) [CBK305277] | 91.5 | – |
| CC(=O)N1CCC[C@H]2NC(=O)CNC(=O)C3(C/C=C/C[C@H]21)CCN(CC(N)=O)CC3 [CBK292135] | 84.4 | – |
| Cc1c(C(=O)O)sc(S(=O)(=O)N2CCN(C(=O)CC3CCCC3)CC2)c1C(=O)O [CBK297122] | 101 | – |
| CC(=O)Nc1ccc(NC(=O)CC2(CC(=O)O)CCCCC2)cc1 [CBK299816] | 102 | – |
| Cc1ccc(NC(=O)c2ccc3nccnc3c2)c(C)n1 [CBK200219] | 93.6 | – |
| NC(=O)CC[n+]1ccc2ccccc2c1 [CBK022857C] | 110 | – |
